ChEMBL document CHEMBL1136031, “8-Aryl xanthines potent inhibitors of phosphodiesterase 5” (Bioorg Med Chem Lett, 2002)
In brackets after ≈: the same amount, converted by molar mass.

What was measured:
[1] = molecular target: cGMP-specific 3',5'-cyclic phosphodiesterase (Homo sapiens, UniProt O76074); test: Inhibitory activity against human platelet Phosphodiesterase 5 (PDE5)
[2] = molecular target: Phosphodiesterase 6; test: Inhibitory concentration against bovine retina phosphodiesterase 6 activity; type: tissue-based
[3] = Ratio of IC50 against human platelet PDE5 to that against bovine retina PDE6
[4] = molecular target: Phosphodiesterase 1 (Bos taurus, UniProt Q01061+P14100); test: Inhibition of bovine heart Phosphodiesterase 1 (PDE1); type: protein assay
[5] = molecular target: Phosphodiesterase 3 (Homo sapiens, UniProt Q14432+Q13370); test: Inhibition of human platelet Phosphodiesterase 3
[6] = system: Caco-2; test: Caco-2 permeability as biopharmaceutical property; type: functional, cell-based; conditions: Homo sapiens
[7] = Volume in steady state distribution value was determined; type: ADME, organism-based; conditions: rat, in vivo; read-out: Vss
[8] = Kinetic solubility at pH 5, ca; type: physicochemical; conditions: buffer
[9] = In vitro microsome metabolism clearance in human was determined; type: ADME; conditions: microsomes
[10] = Kinetic solubility at pH 7.4, ca; type: physicochemical; conditions: buffer
[11] = Bioavailability; type: ADME, organism-based; conditions: rat, in vivo; read-out: BAV
[12] = The pharmacokinetic property, Half-life was determined; type: ADME, organism-based; conditions: rat, in vivo
[13] = In vitro microsome metabolism clearance in rat was determined; type: ADME; conditions: microsomes
[14] = Partition coefficient (logP); type: physicochemical; conditions: octanol/water
[15] = system: Caco-2; test: Caco 2 permeability is determined; type: functional, cell-based; conditions: Homo sapiens
[16] = Kinetic solubility at pH 5; type: physicochemical; conditions: caco-2, pH 5
[17] = organism: Homo sapiens; test: Caco-2 permeability was determined; type: ADME
[18] = Kinetic solubility at pH 7.4; type: physicochemical; conditions: buffer
[19] = Kinetic solubility at pH 5; ca; type: physicochemical; conditions: buffer
[20] = In vitro microsome metabolism clearance in human was determined; High; type: ADME; conditions: microsomes
[21] = The pharmacokinetic property, Half-life in rat in vivo; type: ADME, organism-based
[22] = Kinetic solubility at pH 5.9; type: physicochemical; conditions: buffer
[23] = Log D value at pH 7.4; type: physicochemical; conditions: buffer
[24] = Kinetic solubility at pH 6.9, ca; type: physicochemical; conditions: buffer

Structure (SMILES) | IC50 [1] | IC50 [2] | Ratio [3] | other results
CCCOc1ccc(S(=O)(=O)N(CC)CCN(C)C)cc1-c1nc2c(=O)n(C)c(=O)n(CC(C)C)c2[nH]1 | 11 nM | 242 nM | 22 | –
CCCn1c(=O)n(C)c(=O)c2[nH]c(-c3cc(S(=O)(=O)N4CCN(C)CC4)ccc3OCC)nc21 | 100 nM | 345 nM | – | –
CC(C)Cn1c(=O)n(C)c(=O)c2[nH]c(-c3ccccc3OC(C)C)nc21 | 77 nM | 214 nM | 2.8 | –
CCCOc1ccc(S(=O)(=O)N2CCN(CCO)CC2)cc1-c1nc2c(=O)n(C)c(=O)n(CC(C)C)c2[nH]1 | 3.5 nM | 15 nM | 4 | –
C=CCCn1c(=O)n(C)c(=O)c2nc(-c3cc(S(=O)(=O)N4CCN(C)CC4)ccc3OCC)[nH]c21 | 100 nM | 5600 nM | – | IC50 [4]: > 10000 nM; IC50 [5]: > 10000 nM
CCOc1ccc(S(=O)(=O)N2CCN(CCN(C)C)CC2)cc1-c1nc2c([nH]1)c(=O)n(C)c(=O)n2CC(C)C | 63 nM | – | – | –
CCCOc1ccc(S(=O)(=O)N2CCN(CCOC)CC2)cc1-c1nc2c(=O)n(C)c(=O)n(CC(C)C)c2[nH]1 | – | 91 nM | 7.5 | –
CCOc1ccc(S(=O)(=O)N2CCN(CC)CC2)cc1-c1nc2c([nH]1)c(=O)n(C)c(=O)n2CC(C)C | 26 nM | – | – | –
CNc1ccccc1-c1nc2c([nH]1)c(=O)n(C)c(=O)n2CC(C)C | > 10000 nM | – | – | –
CC(C)Cn1c(=O)n(C)c(=O)c2[nH]c(-c3cc(S(=O)(=O)N4CCN(C)CC4)ccc3OC(C)C)nc21 | 16 nM | 77 nM | 5 | –
CCCOc1ccc(S(=O)(=O)N2CCC(CCO)CC2)cc1-c1nc2c(=O)n(C)c(=O)n(CC(C)C)c2[nH]1 | – | 17 nM | 5.5 | Papp [6]: 13.2 ×10⁻⁶ cm/s
CCOc1ccc(S(=O)(=O)N2CCN(C)CC2)cc1-c1nc2c(=O)n(C)c(=O)n(CC3CC3)c2[nH]1 | 28 nM | 217 nM | – | IC50 [4]: > 10000 nM; IC50 [5]: > 10000 nM
CCCOc1ccc(S(=O)(=O)N2CCN(CCN(C)C)CC2)cc1-c1nc2c([nH]1)c(=O)n(C)c(=O)n2CC(C)C | 24 nM | – | – | –
CCCOc1ccc(S(=O)(=O)N2CCN(C(=O)N(C)C)CC2)cc1-c1nc2c(=O)n(C)c(=O)n(CC(C)C)c2[nH]1 | 3.5 nM | 14 nM | 4 | Vd [7]: 3.4 L/kg; solubility kinetic [8]: 25 µg/mL (≈ 43.4 µM); microsomal CLint [9]: 71 µL/min/mg; solubility kinetic [10]: 25 µg/mL (≈ 43.4 µM); bioavailability [11]: 0%; half-life [12]: 0.367 h; microsomal CLint [13]: 185 µL/min/mg; logP [14]: 4.04; Papp [6]: 22.9 ×10⁻⁶ cm/s
CC(C)Cn1c(=O)n(C)c(=O)c2[nH]c(-c3ccccc3N(C)C)nc21 | > 10000 nM | – | – | –
CCOc1ccc(S(=O)(=O)N2CCN(C)CC2)cc1-c1nc2c(=O)n(C)c(=O)n(CC(C)C)c2[nH]1 | – | 100 nM | 4.9 | Papp [15]: 25 ×10⁻⁶ cm/s; IC50 [4]: 3380 nM; IC50 [5]: > 10000 nM
CCOc1ccc(S(=O)(=O)N2CCN(CCN(C)C)CC2)cc1-c1nc2c(=O)n(C)c(=O)n(CC(C)C)c2[nH]1 | – | 146 nM | 2.5 | –
CCOc1ccc(S(=O)(=O)N2CCN(CCO)CC2)cc1-c1nc2c([nH]1)c(=O)n(C)c(=O)n2CC(C)C | 19 nM | – | – | –
CC(C)COc1ccccc1-c1nc2c([nH]1)c(=O)n(C)c(=O)n2CC(C)C | 105 nM | – | – | –
CC(C)COc1ccccc1-c1nc2c(=O)n(C)c(=O)n(CC(C)C)c2[nH]1 | – | 73 nM | 0.7 | –
CCCOc1ccc(S(=O)(=O)N2CCN(CCN(C)C)CC2)cc1-c1nc2c(=O)n(C)c(=O)n(CC(C)C)c2[nH]1 | – | 37 nM | 1.5 | –
CC(C)Cn1c(=O)n(C)c(=O)c2[nH]c(-c3ccccc3)nc21 | > 10000 nM | – | – | –
CCCOc1ccc(S(=O)(=O)N2CCN(CC)CC2)cc1-c1nc2c([nH]1)c(=O)n(C)c(=O)n2CC(C)C | 5.5 nM | – | – | –
CCCOc1ccc(S(=O)(=O)N2CCN(CC)CC2)cc1-c1nc2c(=O)n(C)c(=O)n(CC(C)C)c2[nH]1 | – | 3 nM | 0.5 | –
CCOc1ccc(S(=O)(=O)N2CCN(C)CC2)cc1-c1nc2c(=O)n(C)c(=O)n(CC3CCCCC3)c2[nH]1 | 160 nM | – | – | –
CC(C)COc1ccc(S(=O)(=O)N2CCN(C)CC2)cc1-c1nc2c([nH]1)c(=O)n(C)c(=O)n2CC(C)C | 93 nM | – | – | –

Structure (SMILES) | IC50 [1] | IC50 [2] | Ratio [3] | other results
CCOc1ccc(S(=O)(=O)N2CCN(CCO)CC2)cc1-c1nc2c(=O)n(C)c(=O)n(CC(C)C)c2[nH]1 | – | 68 nM | 3.5 | –
CCCOc1ccc(S(=O)(=O)N2CCN(C)CC2)cc1-c1nc2c(=O)n(C)c(=O)n(CC(C)C)c2[nH]1 | 10 nM | 6 nM | 0.6 | –
CCOc1ccc(S(=O)(=O)N2CCN(C)CC2)cc1-c1nc2c(=O)n(C)c(=O)n(CC(C)CC)c2[nH]1 (stereo not given) | 9 nM | 83 nM | – | Vd [7]: 9.7 L/kg; microsomal CLint [9]: 114 µL/min/mg; solubility kinetic [16]: > 200 µg/mL; Papp [17]: 34.5 ×10⁻⁶ cm/s; bioavailability [11]: 11%; half-life [12]: 1.53 h; microsomal CLint [13]: 178 µL/min/mg; logP [14]: 3.81; IC50 [4]: > 10000 nM; IC50 [5]: 6030 nM; solubility kinetic [18]: 100 µg/mL (≈ 193 µM)
CCOc1ccc(S(=O)(=O)N2CCN(C)CC2)cc1-c1nc2c(=O)[nH]c(=O)n(CC(C)C)c2[nH]1 | 315 nM | – | – | IC50 [4]: > 10000 nM; IC50 [5]: > 10000 nM
CC(C)Cn1c(=O)n(C)c(=O)c2[nH]c(-c3ccccc3O)nc21 | > 10000 nM | – | – | –
CCCCCOc1ccccc1-c1nc2c([nH]1)c(=O)n(C)c(=O)n2CC(C)C | 551 nM | – | – | –
CCCOc1ccc(S(N)(=O)=O)cc1-c1nc2c([nH]1)c(=O)n(C)c(=O)n2CC(C)C | 5 nM | – | – | –
CCCCOc1ccccc1-c1nc2c([nH]1)c(=O)n(C)c(=O)n2CC(C)C | 135 nM | – | – | –
CCCOc1ccccc1-c1nc2c(=O)n(C)c(=O)n(CC(C)C)c2[nH]1 | 60 nM | 87 nM | 1.4 | –
CSc1ccccc1-c1nc2c(=O)n(C)c(=O)n(CC(C)C)c2[nH]1 | 5420 nM | – | – | –
CCCCOc1ccccc1-c1nc2c(=O)n(C)c(=O)n(CC(C)C)c2[nH]1 | – | 436 nM | 3.2 | –
CCOc1ccc(S(=O)(=O)N2CCN(C)CC2)cc1-c1nc2c(=O)n(C)c(=O)n(CC(C)(C)C)c2[nH]1 | 91 nM | 2380 nM | – | IC50 [5]: 5570 nM
CCCOc1ccc(S(N)(=O)=O)cc1-c1nc2c(=O)n(C)c(=O)n(CC(C)C)c2[nH]1 | – | 16 nM | 3 | –
CC(C)COc1ccc(S(=O)(=O)N2CCN(C)CC2)cc1-c1nc2c(=O)n(C)c(=O)n(CC(C)C)c2[nH]1 | – | 102 nM | 1.1 | –
CC(C)Cn1c(=O)n(C)c(=O)c2[nH]c(-c3ccccc3F)nc21 | > 10000 nM | – | – | –
COCCOc1ccccc1-c1nc2c([nH]1)c(=O)n(C)c(=O)n2CC(C)C | 1500 nM | – | – | –
CCCCCCn1c(=O)n(C)c(=O)c2[nH]c(-c3cc(S(=O)(=O)N4CCN(C)CC4)ccc3OCC)nc21 | 130 nM | – | – | –
CCOc1ccc(S(=O)(=O)N2CCN(C)CC2)cc1-c1nc2c([nH]1)c(=O)[nH]c(=O)n2C | > 10000 nM | – | – | –
CCCOc1ccc(S(=O)(=O)N(C)CCN(C)C)cc1-c1nc2c(=O)n(C)c(=O)n(CC(C)C)c2[nH]1 | 16 nM | 1150 nM | 72 | logP [14]: 4.9; Papp [6]: 0.3 ×10⁻⁶ cm/s
CCOc1ccccc1-c1nc2c(=O)n(C)c(=O)n(CC(C)C)c2[nH]1 | 73 nM | 227 nM | 3.1 | –
CCCOc1ccc(S(=O)(=O)N2CCC(CCO)CC2)cc1-c1nc2c([nH]1)c(=O)n(C)c(=O)n2CC(C)C | 3 nM | – | – | solubility kinetic [19]: 5 µg/mL (≈ 9.13 µM); solubility kinetic [10]: 5 µg/mL (≈ 9.13 µM); bioavailability [11]: 0%; microsomal CLint [13]: 226 µL/min/mg; logP [14]: 3.67; Cl [20]: High
CC(C)Cn1c(=O)n(C)c(=O)c2[nH]c(-c3ccccc3OCc3ccccc3)nc21 | > 10000 nM | – | – | –
CCCOc1ccc(S(=O)(=O)N2CCN(CCOC)CC2)cc1-c1nc2c([nH]1)c(=O)n(C)c(=O)n2CC(C)C | 12 nM | – | – | –
CCOc1ccc(S(=O)(=O)N2CCN(C)CC2)cc1-c1nc2c([nH]1)c(=O)n(C)c(=O)n2CC(C)C | – | – | – | Vd [7]: 9.7 L/kg; half-life [21]: 1.53 h; bioavailability [11]: 11%; solubility kinetic [22]: > 160 µg/mL; logD [23]: 3.15; logP [14]: 3.26; solubility kinetic [24]: 30 µg/mL (≈ 59.5 µM)
CCOc1ccc(S(=O)(=O)N2CCN(C)CC2)cc1-c1nc2c(=O)n(C)c(=O)n(Cc3ccc(OC)cc3)c2[nH]1 | 59 nM | 1210 nM | – | IC50 [4]: 4520 nM; IC50 [5]: > 10000 nM
CCOc1ccc(S(=O)(=O)N2CCN(CC)CC2)cc1-c1nc2c(=O)n(C)c(=O)n(CC(C)C)c2[nH]1 | – | 203 nM | 7.5 | –
